Entries after “also recorded” stand apart in the source; their conditions may differ.
Columns and labels:
[1] = test system: Male Dunkin Hartley guinea pigs; assay: ATP-citric acid cough model; assay type: in vivo, guinea pig; settings: for Number of coughs / cough inhibition (in words): compared with the vehicle group
Protocol: Male Dunkin Hartley guinea pigs (300-400 g) were placed into a whole-body plethysmography box to adapt for 3-5 min, then ATP atomization is carried out for 2 min, and 3 min later, 5 min of citric acid atomization was followed, with all atomization rates being about 300 uL/min. The number of coughs and the cough latency of the animals within 10 min from the start of the citric acid atomization were recorded. During the 10-min observation, coughs of the animals were counted manually, and the coughs were judged according to cough postures of the guinea pigs, such as abdominal twitching, mouth opening, head inclining downward abruptly and the like. The number of coughs during 10 min were recorded, and the cough latency of the guinea pigs was also recorded.
The animals were divided into a vehicle group, a dextromethorphan (63 mg/kg) positive group, an AF-219 (30 mg/kg) positive group and Example 173 compound (3, 10, 30 mg/kg) administration groups, and all the compounds were orally administered. Except that dextromethorphan was administered 40 min before ATP-citric acid exposure, the remaining compounds were administered 2 h before ATP-citric acid exposure.

[2] = phase II clinical trial; cited from earlier work
[3] = biological target: hP2X2/3 (heterodimeric receptors formed by human purinergic P2X receptors subtype 2 and subtype 3) (Homo sapiens (Human), UniProt P56373+Q9UBL9); assay: FLIPR calcium assay, hP2X2/3 expressed in HEK293 cells (P2X2/3 receptor selectivity); assay type: cell-based
Chain of hP2X2/3 (heterodimeric receptors formed by human purinergic P2X receptors subtype 2 and subtype 3) (P56373 whole entry): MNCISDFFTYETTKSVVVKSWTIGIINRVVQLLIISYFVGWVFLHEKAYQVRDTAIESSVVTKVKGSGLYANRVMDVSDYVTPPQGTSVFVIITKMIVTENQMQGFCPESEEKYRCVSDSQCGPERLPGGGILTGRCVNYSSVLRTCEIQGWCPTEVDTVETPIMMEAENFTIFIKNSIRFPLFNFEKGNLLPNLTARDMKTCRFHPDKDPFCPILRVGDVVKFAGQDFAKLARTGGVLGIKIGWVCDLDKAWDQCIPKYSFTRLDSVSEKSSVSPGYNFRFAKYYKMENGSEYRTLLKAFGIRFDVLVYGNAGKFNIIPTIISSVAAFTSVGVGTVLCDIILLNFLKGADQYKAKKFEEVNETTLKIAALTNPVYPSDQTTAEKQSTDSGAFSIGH
Chain of hP2X2/3 (heterodimeric receptors formed by human purinergic P2X receptors subtype 2 and subtype 3) (Q9UBL9 whole entry): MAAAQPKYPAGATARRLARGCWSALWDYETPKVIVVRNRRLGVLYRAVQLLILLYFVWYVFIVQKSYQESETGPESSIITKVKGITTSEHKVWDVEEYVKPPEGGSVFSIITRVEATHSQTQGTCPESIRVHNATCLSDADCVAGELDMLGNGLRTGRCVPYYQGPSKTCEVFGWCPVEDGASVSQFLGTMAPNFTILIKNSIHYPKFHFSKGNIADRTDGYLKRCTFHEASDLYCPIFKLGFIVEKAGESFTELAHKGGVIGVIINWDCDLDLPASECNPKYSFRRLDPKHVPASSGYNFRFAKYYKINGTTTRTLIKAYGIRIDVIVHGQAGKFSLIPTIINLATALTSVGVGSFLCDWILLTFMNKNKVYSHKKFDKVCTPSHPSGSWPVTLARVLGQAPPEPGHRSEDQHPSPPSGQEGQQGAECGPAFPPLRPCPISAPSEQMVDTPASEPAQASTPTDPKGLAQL

[4] = test system: Male Dunkin Hartley guinea pigs; assay: Citric acid only cough model; assay type: in vivo, guinea pig; set-up: Mean cough latency: unit not given beside the values; settings: for Mean number of coughs: 17.5% citric acid
Protocol: Male Dunkin Hartley guinea pigs (300-350 g) were placed in an animal atomization box, and then the door of the atomization box was closed while the ultrasonic atomizer (Guangdong Yuehua) was turned on. 17.5% citric acid gas was introduced into the atomization box at a maximum atomization rate (about 2 mL/min) for 20 s, and coughs of the animals within 10 min were continuously observed from the time of the start of atomization. During the 10-min observation, coughs of the animals were counted manually, and the number of coughs were judged according to cough postures of the guinea pigs, such as abdominal twitching, mouth opening, and head inclining downward abruptly. The number of coughs during the first 5 min and that during 10 min were recorded, and the cough latency of the guinea pigs, namely the time from the initiation of citric acid induction to the appearance of the first cough, was also recorded.

[5] = In vitro cytotoxicity assay, CCK-8 method; assay type: cell-based; settings: human, HepG2 cells
Summary of the method: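 HepG2 cells at 50,000/well, grown to 80–90% confluence, exposed to compound dilutions or DMSO vehicle for 48 h at 37 °C. Viability by CCK-8 (1.5 h, 37 °C), absorbance at 450 nm; CC50 calculated.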

[6] = In vitro metabolic stability, human liver microsome; assay type: in vitro ADME; settings: liver microsomes, 1 mg/mL liver microsome protein, 37° C., NA = essentially not metabolized, read-out: T1/2 in human liver microsome
Summary of the method: (§1)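 Compounds incubated with rat or human liver microsomes. At each time point reactions stopped with cold acetonitrile containing internal standards and centrifuged. Supernatants analysed by LC-MS to derive in vitro metabolic half-life.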

[7] = In vitro metabolic stability, rat liver microsome; assay type: in vitro ADME; settings: liver microsomes, 1 mg/mL liver microsome protein, 37° C., NA = essentially not metabolized, read-out: T1/2 in rat liver microsome
Summary of the method: as §1

[8] = In vitro metabolic stability, guinea pig liver microsome; assay type: in vitro ADME; settings: liver microsomes, 1 mg/mL liver microsome protein, 37° C., NA = essentially not metabolized, read-out: T1/2 in guinea pig liver microsome
Summary of the method: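 Test compound incubated at 37° C. in microsomes (1 mg/mL protein) with NADPH-regenerating system (1 mM NADP, 6 mM glucose 6-phosphate, 25 U/mL G6PDH, 5 mM MgCl2). Timed aliquots quenched in cold acetonitrile with internal standards; supernatant analysed by LC-MS to derive in vitro half-life.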

[9] = test system: Male SD rats; assay: Two-bottle dysgeusia test (quinine water vs normal water); assay type: in vivo, rat; settings: for Quinine/tap water* 100%: Table 9, rats, single intraperitoneal injection
Protocol: All drinking water bottles were removed out 20 h before the start of the formal experiment, and all the animals were deprived of water until the start of the experiment. In the experiment, all the animals were randomly grouped and then subjected to a single intraperitoneal injection of a test compound or a vehicle before water was resupplied. The administration time was determined according to the Tmax of the test compound. Then the animals were placed in separate cages, and two bottles of drinking water (one bottle of normal drinking water and one bottle of 0.3 mM quinine water) were provided.

[10] = 30 mg/kg oral, 2 h before ATP-citric acid exposure
[11] = before administration (baseline of the group)
[12] = 63 mg/kg oral, 40 min before ATP-citric acid exposure

COc1cc(C(C)C)c(Oc2cnc(N)nc2N)cc1S(N)(=O)=O [AF-219, reference compound]
Cough inhibition ratio vs. vehicle (%) [1, 10]: 45.20% | Number of coughs during 10 min [1, 10]: 11.42 | Dysgeusia (in words) [2]: serious dysgeusia | Efficacy for refractory cough (in words) [2]: relatively good efficacy for refractory cough

COC(=O)N1CCO[C@@H](Cc2c(-c3c(F)cc(S(N)(=O)=O)cc3F)nc3cc(Cl)ccn23)C1 [Compound 172, methyl (S)-2-((7-chloro-2-(2,6-difluoro-4-sulfamoylphenyl)imidazo[1,2-a]pyridin-3-yl)methyl)morpholine-4-carboxylate]
Folds of selectivity [3]: >85714 | Cough inhibition rate Vs Baseline (%) ([4]; 30 mg/kg): 50.6% | Cough inhibition rate Vs Vehicle (%) ([4]; 30 mg/kg): 43.9% | Number of coughs and cough latency (in words) ([4]; 30 mg/kg, compared with the blank vehicle or the condition before administration): can effectively reduce the number of coughs and prolong the cough latency | Mean cough latency ([4]; after administration, 30 mg/kg): 118.89 | Mean number of coughs ([4]; after administration, 30 mg/kg): 9.67 | Mean cough latency [4, 11]: 87.56 | Mean number of coughs [4, 11]: 19.56 | Number of coughs during 10 min ([1]; 3 mg/kg oral, 2 h before ATP-citric acid exposure): 14.42 | Number of coughs during 10 min ([1]; 10 mg/kg oral, 2 h before ATP-citric acid exposure): 10.17 | Number of coughs during 10 min [1, 10]: 9.83 | Number of coughs / cough inhibition (in words) [1]: stronger cough inhibition effect than positive compound 2 | Number of coughs / cough inhibition (in words) ([1]; listed as compound 172): can significantly reduce the number of coughs; also recorded: inhibition in a dose-dependent manner | CC50 at 48 h [5]: 57.1 µM | half-life [6]: 13.7 h | half-life [7]: 3.72 h | half-life [8]: 6.84 h | Ratio of quinine/water intake of rats (in words) ([9]; 5 mg/kg, 10 mg/kg and 20 mg/kg, compared with the blank vehicle): almost unaffected | Quinine/tap water* 100% ([9]; 5 mg/kg): 7.05% | Quinine/tap water* 100% ([9]; 10 mg/kg): 7.41% | Quinine/tap water* 100% ([9]; 20 mg/kg): 8.66%

COc1ccc2c(c1)[C@]13CCCC[C@@H]1[C@H](C2)N(C)CC3 [Dextromethorphan, dextromethorphan, reference compound]
Cough inhibition ratio vs. vehicle (%) [1, 12]: 61.60% | Number of coughs during 10 min [1, 12]: 8.00 | Number of coughs / cough inhibition (in words) [1]: can significantly reduce the number of coughs

Source: patent US20240034729A9, “HETEROCYCLIC COMPOUND, INTERMEDIATE, PREPARATION METHOD THEREFOR AND APPLICATION THEREOF” (WUHAN LL SCIENCE AND TECHNOLOGY DEVELOPMENT CO., LTD., priority 2018, published 2024)
